Test results reported in PubChem BioAssay AID2060489 (Molecular Pharmacology Branch, DTP, NCI, 2025).

System: 922993-354-T-J3-PDC complex spheroids, viability
Assay: Anticancer human tumor 922993-354-T-J3-PDC patient-derived endometrial carcinoma cell line growth inhibition [GQUAD]
Conditions: for IC50: curve of first compound; for viability, T/C: stronger effect = lower value; active means viability on the fitted dose curve at most 10% of control; inactive means the rest
Procedure, shortened: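 Viability of tumor cells grown as complex spheroids with endothelial and stromal cells, exposed to drug combinations. Top concentration at or near clinical Cmax (else 10 microM), diluted in half-log increments.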

[1] = second compound 0.0316 µM, first compound 0.0316 µM
[2] = second compound 0.0316 µM, first compound 0.1 µM
[3] = second compound 0.0316 µM, first compound 0.316 µM
[4] = second compound 0.0316 µM, first compound 1 µM
[5] = second compound 0.0316 µM, first compound 3.16 µM
[6] = second compound 0.0316 µM, first compound 10 µM
[7] = second compound 0.1 µM, first compound 0.0316 µM
[8] = second compound 0.1 µM, first compound 0.1 µM
[9] = second compound 0.1 µM, first compound 0.316 µM
[10] = second compound 0.1 µM, first compound 1 µM
[11] = second compound 0.1 µM, first compound 3.16 µM
[12] = second compound 0.1 µM, first compound 10 µM
[13] = second compound 0.316 µM, first compound 0.0316 µM
[14] = second compound 0.316 µM, first compound 0.1 µM
[15] = second compound 0.316 µM, first compound 0.316 µM
[16] = second compound 0.316 µM, first compound 1 µM
[17] = second compound 0.316 µM, first compound 3.16 µM
[18] = second compound 0.316 µM, first compound 10 µM
[19] = second compound 1 µM, first compound 0.0316 µM
[20] = second compound 1 µM, first compound 0.1 µM
[21] = second compound 1 µM, first compound 0.316 µM
[22] = second compound 1 µM, first compound 1 µM
[23] = second compound 1 µM, first compound 3.16 µM
[24] = second compound 1 µM, first compound 10 µM
[25] = second compound 3.16 µM, first compound 0.0316 µM
[26] = second compound 3.16 µM, first compound 0.1 µM
[27] = second compound 3.16 µM, first compound 0.316 µM
[28] = second compound 3.16 µM, first compound 1 µM
[29] = second compound 3.16 µM, first compound 3.16 µM
[30] = second compound 3.16 µM, first compound 10 µM
[31] = second compound 10 µM, first compound 0.0316 µM
[32] = second compound 10 µM, first compound 0.1 µM
[33] = second compound 10 µM, first compound 0.316 µM
[34] = second compound 10 µM, first compound 1 µM
[35] = second compound 10 µM, first compound 3.16 µM
[36] = second compound 10 µM, first compound 10 µM
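Further: spheroids exposed to compounds for seven days.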
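Wherever viability, T/C is given: 100% = DMSO vehicle control viability.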

C#Cc1c(F)ccc2cc(O)cc(-c3ncc4c(N5CC6CCC(C5)N6)nc(OCC56CCCN5CC(F)C6)nc4c3F)c12 (stereo not drawn) + Cc1cnc(CNC(=O)c2c(=O)c3ccc(N4CCCN(C)CC4)nc3n3c2sc2ccccc23)cn1
< 0.0316 µM: IC50 (second compound 1 µM) | IC50 (second compound 3.16 µM) | IC50 (second compound 10 µM)
> 10 µM: IC50 (second compound 0.0316 µM) | IC50 (second compound 0.1 µM)
0.0894 µM: IC50 (second compound 0.316 µM)
inactive: viability, T/C [1] 75.3% | viability, T/C [2] 81.8% | viability, T/C [3] 74.4% | viability, T/C [4] 70% | viability, T/C [5] 86.9% | viability, T/C [6] 56.8% | viability, T/C [7] 64.3% | viability, T/C [8] 70.2% | viability, T/C [9] 56% | viability, T/C [10] 51.6% | viability, T/C [11] 54% | viability, T/C [12] 61.1% | viability, T/C [13] 61.9% | viability, T/C [14] 51.4% | viability, T/C [15] 42.5% | viability, T/C [16] 37% | viability, T/C [17] 41.2% | viability, T/C [18] 50.3% | viability, T/C [19] 42.1% | viability, T/C [20] 45.2% | viability, T/C [21] 38.4% | viability, T/C [22] 36.2% | viability, T/C [23] 50.2% | viability, T/C [24] 44.5% | viability, T/C [25] 46.6% | viability, T/C [26] 43.8% | viability, T/C [27] 42.2% | viability, T/C [28] 44.6% | viability, T/C [29] 45.9% | viability, T/C [30] 42.5% | viability, T/C [31] 40.5% | viability, T/C [32] 38.7% | viability, T/C [33] 39.3% | viability, T/C [34] 44.8% | viability, T/C [35] 40.3% | viability, T/C [36] 34.2%

C#Cc1c(F)ccc2cc(O)cc(-c3ncc4c(N5CC6CCC(C5)N6)nc(OCC56CCCN5CC(F)C6)nc4c3F)c12 (stereo not drawn) + Cc1[nH]c2ccc(F)cc2c1-c1nc2c3cccnc3c3ncccc3c2[nH]1
> 10 µM: IC50 (second compound 0.0316 µM) | IC50 (second compound 0.1 µM) | IC50 (second compound 0.316 µM) | IC50 (second compound 1 µM) | IC50 (second compound 3.16 µM) | IC50 (second compound 10 µM)
inactive: viability, T/C [1] 112% | viability, T/C [2] 93.3% | viability, T/C [3] 106% | viability, T/C [4] 98.2% | viability, T/C [5] 96% | viability, T/C [6] 80.7% | viability, T/C [7] 103% | viability, T/C [8] 98.4% | viability, T/C [9] 94.7% | viability, T/C [10] 107% | viability, T/C [11] 116% | viability, T/C [12] 110% | viability, T/C [13] 87% | viability, T/C [14] 88.8% | viability, T/C [15] 94% | viability, T/C [16] 99.2% | viability, T/C [17] 87.8% | viability, T/C [18] 124% | viability, T/C [19] 83.4% | viability, T/C [20] 108% | viability, T/C [21] 99.5% | viability, T/C [22] 120% | viability, T/C [23] 125% | viability, T/C [24] 114% | viability, T/C [25] 103% | viability, T/C [26] 87.6% | viability, T/C [27] 121% | viability, T/C [28] 107% | viability, T/C [29] 114% | viability, T/C [30] 113% | viability, T/C [31] 91.6% | viability, T/C [32] 104% | viability, T/C [33] 101% | viability, T/C [34] 110% | viability, T/C [35] 127% | viability, T/C [36] 113%

O=c1[nH]cc(F)c(=O)[nH]1 + CN(C)c1ccc(Nc2c3ccc(NC(=O)CCN4CCCC4)cc3nc3cc(NC(=O)CCN4CCCC4)ccc23)cc1
5.83 µM: IC50 (second compound 1 µM)
inactive: viability, T/C [1] 82.1% | viability, T/C [2] 84.7% | viability, T/C [3] 81.8% | viability, T/C [4] 91.8% | viability, T/C [5] 83.7% | viability, T/C [6] 21.4% | viability, T/C [7] 110% | viability, T/C [8] 93.9% | viability, T/C [9] 112% | viability, T/C [10] 81% | viability, T/C [11] 69.2% | viability, T/C [12] 15.7% | viability, T/C [13] 103% | viability, T/C [14] 100% | viability, T/C [15] 91.4% | viability, T/C [16] 78.1% | viability, T/C [17] 56.8% | viability, T/C [18] 22.5% | viability, T/C [19] 95.8% | viability, T/C [20] 100% | viability, T/C [21] 90.6% | viability, T/C [22] 105% | viability, T/C [23] 82.1% | viability, T/C [24] 21.9% | viability, T/C [25] 90.4% | viability, T/C [26] 113% | viability, T/C [27] 105% | viability, T/C [28] 98.2% | viability, T/C [29] 87.5% | viability, T/C [30] 18.8% | viability, T/C [31] 117% | viability, T/C [32] 135% | viability, T/C [33] 121% | viability, T/C [34] 117% | viability, T/C [35] 72.9% | viability, T/C [36] 23.1%
5.37 µM: IC50 (second compound 10 µM)
5.9 µM: IC50 (second compound 0.0316 µM)
4.59 µM: IC50 (second compound 0.1 µM)
5.93 µM: IC50 (second compound 3.16 µM)
3.93 µM: IC50 (second compound 0.316 µM)

CC1COCCN1c1cc(-c2ccnn2C)c2ccnc(-c3ccn[nH]3)c2n1 (stereo not drawn) + Cc1[nH]c2ccc(F)cc2c1-c1nc2c3cccnc3c3ncccc3c2[nH]1
0.28 µM: IC50 (second compound 0.316 µM)
0.216 µM: IC50 (second compound 10 µM)
inactive: viability, T/C [1] 84% | viability, T/C [2] 59.3% | viability, T/C [3] 44.3% | viability, T/C [4] 23.6% | viability, T/C [5] 21% | viability, T/C [6] 16.5% | viability, T/C [7] 82% | viability, T/C [8] 66% | viability, T/C [9] 45.9% | viability, T/C [10] 25.4% | viability, T/C [11] 20.9% | viability, T/C [12] 21.8% | viability, T/C [13] 108% | viability, T/C [14] 76.3% | viability, T/C [15] 50.5% | viability, T/C [16] 22.7% | viability, T/C [17] 17.5% | viability, T/C [18] 16.5% | viability, T/C [19] 93.2% | viability, T/C [20] 67% | viability, T/C [21] 49% | viability, T/C [22] 21.5% | viability, T/C [23] 20.1% | viability, T/C [24] 15.1% | viability, T/C [25] 98.2% | viability, T/C [26] 65.6% | viability, T/C [27] 37.6% | viability, T/C [28] 25% | viability, T/C [29] 27.2% | viability, T/C [30] 21.4% | viability, T/C [31] 104% | viability, T/C [32] 70.7% | viability, T/C [33] 39.4% | viability, T/C [34] 24.8% | viability, T/C [35] 26.2% | viability, T/C [36] 16.6%
0.188 µM: IC50 (second compound 0.0316 µM) | IC50 (second compound 3.16 µM)
0.243 µM: IC50 (second compound 1 µM)
0.234 µM: IC50 (second compound 0.1 µM)
